In the supplement of paper PMC12592484 one finds drug sensitivity score data, which are given here for eleven molecules.

What all share (assay): drug sensitivity score (DSS2, normalised partial AUC of dose-response, 72 h CellTiter-Glo viability) (DSS (dimensionless)); higher = more sensitive (stronger growth inhibition / cytotoxicity); extreme values may be limits of the assay
Background: Cellular ATP, detected with luciferase, serves as a proxy for viable cell number.

One test has as its system CAF#6 (primary prostate cancer-associated fibroblasts of iCAF-like type). The method, boiled down: (§1)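 Low-passage primary prostate cancer-associated fibroblasts, PF179T, WPMY-1, LNCaP and 22Rv1 cells were seeded into 384-well plates carrying pre-dispensed compounds at five doses covering a 10,000-fold range. After 72 h, viability was read by CellTiter-Glo 2.0 luminescence. Responses were scaled to vehicle and positive-control wells. The drug sensitivity score (DSS2) is a partial area under the fitted logistic dose–response curve divided by the log of its upper asymptote, computed in BREEZE; higher means more sensitive.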

The test system of a further test is WPMY-1. The method, boiled down: as §1
The next test deals with CAF#2 (primary prostate cancer-associated fibroblasts of iCAF-like type). The method, boiled down:
as §1

For a further test, the system named is CAF#5 (primary prostate cancer-associated fibroblasts of myCAF-like type). The method, boiled down: as §1
A further test has as its system CAF#4 (primary prostate cancer-associated fibroblasts of iCAF-like type). The method, boiled down:
as §1

Another test has as its system LNCAP. The method, boiled down: as §1
A further test concerns CAF#1 (primary prostate cancer-associated fibroblasts of myCAF-like type). The method, boiled down:
as §1

Another test relates to CAF#3 (primary prostate cancer-associated fibroblasts of myCAF-like type). The method, boiled down: as §1
A further test relates to 22Rv1. The method, boiled down:
as §1

A further test concerns PF179T. The method, boiled down:
as §1

The next test relates to CAF#7 (primary prostate cancer-associated fibroblasts of myCAF-like type). The method, boiled down: as §1

SMILES strings stand for the structures.

Take `C[C@]12CC[C@@H]3c4ccc(O)cc4C[C@@H](CCCCCCCCC[S+]([O-])CCCC(F)(F)C(F)(F)F)[C@H]3[C@@H]1CC[C@@H]2O` (stereo partly specified) [Fulvestrant] (tested concentration range 0.1-1000 nM): the drug sensitivity score with CAF#6 is 0.1; in the test on WPMY-1, 0; in the test on CAF#2 it was 0; in the test on CAF#5, 0; in the test with CAF#4, 0; in the test with LNCAP, 0.3. Besides, the drug sensitivity score was found to be 0 in the test on CAF#1; 0.2 in the test with CAF#3; 0 in the test with 22Rv1; 0 with PF179T; 0 in the test with CAF#7.

Regarding `CC(C)C[C@H](NC(=O)[C@H](CCc1ccccc1)NC(=O)CN1CCOCC1)C(=O)N[C@@H](Cc1ccccc1)C(=O)N[C@@H](CC(C)C)C(=O)[C@@]1(C)CO1` [Carfilzomib] (tested concentration range 0.1-1000 nM), the drug sensitivity score with CAF#6 turned out to be 15.9; in the test with WPMY-1, 31.5; with CAF#2, 18.9; in the test with CAF#5, 22; in the test on CAF#4, 13.3; in the test on LNCAP, 27.2. For the same molecule, the drug sensitivity score in the test on CAF#1 is 17.5; in the test with CAF#3, 17.1; with 22Rv1, 27.5; with PF179T, 20.3; in the test with CAF#7 it was 16.7.

Regarding `CNC(=O)c1ccc(N2C(=S)N(c3cnc(C#N)c(C(F)(F)F)c3)C(=O)C23CCC3)cc1F` [Apalutamide] (tested concentration range 1-10000 nM), the drug sensitivity score in the test on CAF#6 is 0.2; in the test with WPMY-1, 0; in the test on CAF#2, 0.8; with CAF#5, 0.1; in the test on CAF#4, 0; in the test on LNCAP, 2.7. Also, the drug sensitivity score is 0.2 in the test on CAF#1; 0.8 with CAF#3; 0 in the test with 22Rv1; 0.9 in the test on PF179T; 0 with CAF#7.

For `COCCNCc1ccc(-c2cc3nccc(Oc4ccc(NC(=O)C5(C(=O)Nc6ccc(F)cc6)CC5)cc4F)c3s2)nc1` [Sitravatinib] (tested concentration range 0.2-2500 nM), the drug sensitivity score worked out at 3.4 with CAF#6; 5.9 in the test with WPMY-1; 9.7 in the test on CAF#2; 6.6 in the test on CAF#5; 6.6 in the test with CAF#4; 2.1 with LNCAP. Further, the drug sensitivity score in the test on CAF#1 stood at 5.5; in the test on CAF#3, 4.5; with 22Rv1, 4.7; with PF179T, 6.7; in the test on CAF#7, 5.7.

Consider `Nc1cc(F)ccc1NC(=O)c1ccc(CNC(=O)/C=C/c2cccnc2)cc1` [Tucidinostat] (tested concentration range 1-10000 nM), for which the drug sensitivity score in the test with CAF#6 is 3.2; with WPMY-1, 7.6; in the test on CAF#2, 6; with CAF#5 it was 10.1; in the test on CAF#4, 5.7; in the test on LNCAP, 10.6. Further, the drug sensitivity score with CAF#1 is 2.4; with CAF#3, 2.9; in the test with 22Rv1 it was 9.6; with PF179T, 8.9; in the test on CAF#7, 3.9.

Regarding `NC(=O)NO` [Hydroxyurea] (tested concentration range 100-1000000 nM), the drug sensitivity score worked out at 0 in the test with CAF#6; 5 in the test with WPMY-1; 5.5 in the test on CAF#2; 2.5 in the test on CAF#5; 0.2 with CAF#4; 4.6 in the test with LNCAP. The drug sensitivity score in the test on CAF#1 is 1.9; in the test with CAF#3 it was 0.5; in the test on 22Rv1, 3.8; with PF179T it was 2.4; in the test with CAF#7, 0.

Consider `C=C(c1ccc(C(=O)O)cc1)c1cc2c(cc1C)C(C)(C)CCC2(C)C` [Bexarotene] (tested concentration range 1-10000 nM), for which the drug sensitivity score with CAF#6 amounted to 0; with WPMY-1, 2.1; in the test on CAF#2 it was 10.1; in the test with CAF#5, 3.8; in the test with CAF#4, 3.7; in the test with LNCAP, 0. The drug sensitivity score turned out to be 4.7 in the test with CAF#1; 0 with CAF#3; 1.6 in the test on 22Rv1; 10.2 in the test on PF179T; 1.2 in the test with CAF#7.

In the case of `CC(=O)c1c(C)c2cnc(Nc3ccc(N4CCNCC4)cn3)nc2n(C2CCCC2)c1=O` [Palbociclib] (tested concentration range 1-10000 nM), the drug sensitivity score with CAF#6 stood at 1.4; in the test with WPMY-1, 2.1; with CAF#2 it was 7.4; in the test with CAF#5, 4.9; with CAF#4, 3.3; with LNCAP, 7.7. Besides, the drug sensitivity score came to 2.5 in the test on CAF#1; 0 in the test on CAF#3; 7.9 in the test with 22Rv1; 5.1 in the test with PF179T; 2 in the test on CAF#7.

Consider `Nc1nc(Cl)nc2c1ncn2[C@H]1C[C@H](O)[C@@H](CO)O1` [Cladribine] (tested concentration range 0.1-1000 nM), for which the drug sensitivity score with CAF#6 was determined as 0; with WPMY-1, 5.1; in the test with CAF#2, 2.7; in the test with CAF#5 it was 0.1; with CAF#4, 0; in the test with LNCAP, 5.2. The drug sensitivity score in the test with CAF#1 turned out to be 0; with CAF#3 it was 0.5; in the test with 22Rv1, 1.7; in the test on PF179T, 3.9; in the test with CAF#7, 0.6.

As for `CNc1nc(Nc2cn(C(C)(C)C#N)nc2C)ncc1C(F)(F)F` [GNE-0877] (tested concentration range 0.1-1000 nM), the drug sensitivity score with CAF#6, in the test on WPMY-1, in the test with CAF#2, in the test on CAF#5, in the test with CAF#4 and in the test on LNCAP was 0 each time. For the same molecule, the drug sensitivity score with CAF#1, with CAF#3, with 22Rv1, with PF179T and with CAF#7 was 0 in each case.

Regarding `CC(C)(C#N)c1cc(Cn2cncn2)cc(C(C)(C)C#N)c1` [Anastrozole] (tested concentration range 1-10000 nM), the drug sensitivity score in the test with CAF#6, in the test on WPMY-1, with CAF#2, with CAF#5, with CAF#4 and in the test with LNCAP was 0 throughout. In addition, the drug sensitivity score with CAF#1, in the test on CAF#3, in the test with 22Rv1, in the test on PF179T and in the test with CAF#7 was 0 each time.
